Measurements reported in ChEMBL document CHEMBL1250533, “QSAR-based solubility model for drug-like compounds” (Bioorg Med Chem, 2010).
In brackets after ≈: the same amount, converted by molar mass.

Experiment: Intrinsic solubility of the compound in water

Row | Structure (SMILES) | solubility (water) | solubility (buffer)
1 | Nc1ccc(Br)cc1C(=O)O | 182 µg/mL (≈ 842 µM) | 
2 | C=CCN1CC[C@]23c4c5ccc(O)c4O[C@H]2C(=O)CC[C@@]3(O)[C@H]1C5 [NALOXONE] | 414 µg/mL (≈ 1260 µM) | 
3 | O=c1n(CCCN2CCN(c3cccc(Cl)c3)CC2)nc2ccccn12 [TRAZODONE] | 127 µg/mL (≈ 342 µM) | 
4 | CCN1CCN(c2cc3c(cc2F)c(=O)c(C(=O)O)cn3C2CC2)CC1 [ENROFLOXACIN] | 237 µg/mL (≈ 659 µM) | 
5 | Nc1ccc(/N=N/c2ccccc2)c(N)n1 [PHENAZOPYRIDINE] | 13.7 µg/mL (≈ 64.2 µM) | 
6 | CCN(CC)CCOC(=O)c1ccc(N)cc1 [PROCAINE] | 4500 µg/mL (≈ 19000 µM) | 
7 | CNC(=C[N+](=O)[O-])NCCSCc1ccc(CN(C)C)o1 [RANITIDINE] |  | 990 µg/mL (≈ 3150 µM)
8 | CC(=O)CC(c1ccccc1)c1c(O)c2ccccc2oc1=O (centres undefined) [WARFARIN] |  | 5.1 µg/mL (≈ 16.5 µM)
9 | CCCCOc1cc(C(=O)NCCN(CC)CC)c2ccccc2n1 [DIBUCAINE] | 14 µg/mL (≈ 40.8 µM) | 
10 | CCCCNC(=O)NS(=O)(=O)c1ccc(C)cc1 [TOLBUTAMIDE] | 93 µg/mL (≈ 344 µM) | 
11 | OCCN(CCO)c1nc(N2CCCCC2)c2nc(N(CCO)CCO)nc(N3CCCCC3)c2n1 [DIPYRIDAMOLE] | 3.46 µg/mL (≈ 6.86 µM) | 
12 | CCCN(CCC)S(=O)(=O)c1ccc(C(=O)O)cc1 [PROBENECID] | 3.9 µg/mL (≈ 13.7 µM) | 
13 | C=CCc1ccccc1OCC(O)CNC(C)C (centres undefined) [ALPRENOLOL] | 580 µg/mL (≈ 2330 µM) | 
14 | Cc1cccc(Nc2ccccc2C(=O)O)c1C [MEFENAMIC ACID] | 0.04 µg/mL (≈ 0.166 µM) | 
15 | CN1CCN(c2cc3c(cc2F)c(=O)c(C(=O)O)cn3-c2ccc(F)cc2)CC1 [DIFLOXACIN] | 100 µg/mL (≈ 250 µM) | 
16 | NC(N)=Nc1nc(CSCCC(N)=NS(N)(=O)=O)cs1 [FAMOTIDINE] |  | 760 µg/mL (≈ 2250 µM)
17 | CNCCC=C1c2ccccc2CCc2ccccc21 [NORTRIPTYLINE] |  | 25 µg/mL (≈ 94.9 µM)
18 | Cc1cccc(CN2CCN(C(c3ccccc3)c3ccc(Cl)cc3)CC2)c1 (centres undefined) [MECLIZINE] |  | 0.13 µg/mL (≈ 0.333 µM)
19 | CCN(CC)CCNC(=O)c1ccc(N)cc1 [PROCAINAMIDE] |  | Soluble
20 | NS(=O)(=O)c1cc2c(cc1C(F)(F)F)NCNS2(=O)=O [HYDROFLUMETHIAZIDE] | 360 µg/mL (≈ 1090 µM) | 
21 | O=C1NC(=O)C(c2ccccc2)(c2ccccc2)N1 [PHENYTOIN] | 35 µg/mL (≈ 139 µM) | 
22 | CN(C)CCCN1c2ccccc2CCc2ccccc21 [IMIPRAMINE] | 22 µg/mL (≈ 78.5 µM) | 
23 | CCCNC(=O)NS(=O)(=O)c1ccc(Cl)cc1 [CHLORPROPAMIDE] | 156 µg/mL (≈ 564 µM) | 
24 | CNCCCN1c2ccccc2CCc2ccccc21 [DESIPRAMINE] | 63 µg/mL (≈ 236 µM) | 
25 | NS(=O)(=O)c1cc2c(cc1Cl)N=C(CSCc1ccccc1)NS2(=O)=O [BENZTHIAZIDE] | 6.4 µg/mL (≈ 14.8 µM) | 

Row | Structure (SMILES) | solubility (water) | solubility (buffer)
26 | CN[C@H]1CC[C@@H](c2ccc(Cl)c(Cl)c2)c2ccccc21 [SERTRALINE] |  | 4.5 µg/mL (≈ 14.7 µM)
27 | CC(C)NCC(O)COc1cccc2[nH]ccc12 (centres undefined) [PINDOLOL] | 40 µg/mL (≈ 161 µM) | 
28 | O=C(O)c1cc(Br)c(O)cc1O | 559 µg/mL (≈ 2400 µM) | 
29 | Nc1nc2nc[nH]c2c(=O)[nH]1 [GUANINE] | 5.6 µg/mL (≈ 37.1 µM) | 
30 | Cc1ccc(Cl)c(Nc2ccccc2C(=O)O)c1Cl [MECLOFENAMIC ACID] |  | 0.16 µg/mL (≈ 0.54 µM)
31 | CCn1cc(C(=O)O)c(=O)c2ccc(C)nc21 [NALIDIXIC ACID] | 57 µg/mL (≈ 245 µM) | 
32 | CC(C(=O)O)c1ccc2c(c1)[nH]c1ccc(Cl)cc12 (centres undefined) [CARPROFEN] | 5.5 µg/mL (≈ 20.1 µM) | 
33 | CN1CCN(C2=Nc3cc(Cl)ccc3Nc3ccccc32)CC1 [CLOZAPINE] | 189 µg/mL (≈ 578 µM) | 
34 | O=C(O)c1cc(-c2ccc(F)cc2F)ccc1O [DIFLUNISAL] | 0.29 µg/mL (≈ 1.16 µM) | 
35 | C#CCN(C)[C@H](C)Cc1ccccc1 [SELEGILINE] | 575 µg/mL (≈ 3070 µM) | 
36 | CC(=O)OCC1=C(C(=O)O)N2C(=O)[C@@H](NC(=O)Cc3cccs3)[C@H]2SC1 [CEPHALOTHIN] | 457 µg/mL (≈ 1150 µM) | 
37 | Cc1ccc(C(=O)c2ccc(CC(=O)O)n2C)cc1 [TOLMETIN] | 21 µg/mL (≈ 81.6 µM) | 
38 | Clc1ccc(COC(Cn2ccnc2)c2ccc(Cl)cc2Cl)c(Cl)c1 (centres undefined) [MICONAZOLE] | 3.5 µg/mL (≈ 8.41 µM) | 
39 | CCCC(=O)Nc1ccc(OCC(O)CNC(C)C)c(C(C)=O)c1 (centres undefined) [ACEBUTOLOL] | 711 µg/mL (≈ 2110 µM) | 
40 | CN(C)C(=O)C(CCN1CCC(O)(c2ccc(Cl)cc2)CC1)(c1ccccc1)c1ccccc1 [LOPERAMIDE] |  | 0.04 µg/mL (≈ 0.0838 µM)
41 | C[C@@H]1CN(c2c(F)c(F)c3c(=O)c(C(=O)O)cn(C4CC4)c3c2F)C[C@H](C)N1 [ORBIFLOXACIN] |  | Soluble
42 | CCc1nc(N)nc(N)c1-c1ccc(Cl)cc1 [PYRIMETHAMINE] | 19.4 µg/mL (≈ 78 µM) | 
43 | CN1CCN(c2c(F)cc3c(=O)c(C(=O)O)cn4c3c2OCN4C)CC1 [MARBOFLOXACIN] |  | Soluble
44 | O=C(O)c1cc(/N=N/c2ccc(S(=O)(=O)Nc3ccccn3)cc2)ccc1O [SULFASALAZINE] |  | 0.29 µg/mL (≈ 0.728 µM)
45 | c1ccc(Cn2ccnc2)cc1 [BENZYLIMIDAZOLE] | 874 µg/mL (≈ 5520 µM) | 
46 | Oc1ccc(I)cc1 | 4250 µg/mL (≈ 19300 µM) | 
47 | O=C1CN(/N=C/c2ccc([N+](=O)[O-])o2)C(=O)N1 [NITROFURANTOIN] |  | 137 µg/mL (≈ 575 µM)
48 | CCn1cc(C(=O)O)c(=O)c2cc(F)c(N3CCNC(C)C3)c(F)c21 (centres undefined) [LOMEFLOXACIN] | 1630 µg/mL (≈ 4640 µM) | 
49 | O=C(O)c1ccc(O)cc1 [PARABEN] | 4740 µg/mL (≈ 34300 µM) | 
50 | O=C(O)C(O)c1ccccc1Cl (centres undefined) |  | Soluble

Row | Structure (SMILES) | solubility (water) | solubility (buffer)
51 | CC(C(=O)O)c1cccc(Oc2ccccc2)c1 (centres undefined) [FENOPROFEN] |  | 48 µg/mL (≈ 198 µM)
52 | O=C(O)c1cn(-c2ccc(F)cc2)c2cc(N3CCNCC3)c(F)cc2c1=O [SARAFLOXACIN] | 280 µg/mL (≈ 727 µM) | 
53 | CCOC(=O)c1ccc(N)cc1 [BENZOCAINE] | 780 µg/mL (≈ 4720 µM) | 
54 | O=c1[nH]cc(F)c(=O)[nH]1 [FLUOROURACIL] |  | Soluble
55 | c1ccc2[nH]c(-c3cscn3)nc2c1 [THIABENDAZOLE] | 66 µg/mL (≈ 328 µM) | 
56 | CC1CCc2cc(F)cc3c(=O)c(C(=O)O)cn1c23 (centres undefined) [FLUMEQUINE] |  | 48 µg/mL (≈ 184 µM)
57 | CN(C)CCCN1c2ccccc2Sc2ccc(Cl)cc21 [CHLORPROMAZINE] |  | 2.7 µg/mL (≈ 8.47 µM)
58 | CNCCCC12CCC(c3ccccc31)c1ccccc12 [MAPROTILINE] |  | 5.6 µg/mL (≈ 20.2 µM)
59 | O=C(O)c1ccccc1C(=O)O [PHTHALIC ACID] |  | 4130 µg/mL (≈ 24900 µM)
60 | CN1C(C(=O)Nc2ccccn2)=C(O)c2ccccc2S1(=O)=O [PIROXICAM] | 5.2 µg/mL (≈ 15.7 µM) | 
61 | CC(CN(C)C)CN1c2ccccc2CCc2ccccc21 (centres undefined) [TRIMIPRAMINE] | 4.8 µg/mL (≈ 16.3 µM) | 
62 | O=C(O)c1ccccc1O [SALICYLIC ACID] |  | 1620 µg/mL (≈ 11700 µM)
63 | CC1=NS(=O)(=O)c2cc(Cl)ccc2N1 [DIAZOXIDE] | 100 µg/mL (≈ 434 µM) | 
64 | Cc1nnc(NS(=O)(=O)c2ccc(N)cc2)s1 [SULFAMETHIZOLE] | 450 µg/mL (≈ 1660 µM) | 
65 | COc1ccccc1OCCNCC(O)COc1cccc2[nH]c3ccccc3c12 (centres undefined) [CARVEDILOL] |  | 22.6 µg/mL (≈ 55.6 µM)
66 | NCCc1c[nH]c2ccccc12 [TRYPTAMINE] | 80 µg/mL (≈ 499 µM) | 
67 | CN(C)CCC=C1c2ccccc2CCc2ccccc21 [AMITRIPTYLINE] | 7.8 µg/mL (≈ 28.1 µM) | 
68 | CCCCNc1ccc(C(=O)OCCN(C)C)cc1 [TETRACAINE] | 258 µg/mL (≈ 976 µM) | 
69 | NC12CC3CC(CC(C3)C1)C2 [AMANTADINE] | 2120 µg/mL (≈ 14000 µM) | 
70 | CC(C(=O)O)c1ccc(-c2ccccc2)c(F)c1 (centres undefined) [FLURBIPROFEN] | 17.2 µg/mL (≈ 70.4 µM) | 
71 | C[C@@H]1CN(c2c(F)c(N)c3c(=O)c(C(=O)O)cn(C4CC4)c3c2F)C[C@H](C)N1 [SPARFLOXACIN] | 167 µg/mL (≈ 426 µM) | 
72 | CCn1cc(C(=O)O)c(=O)c2cc(F)c(N3CCNCC3)cc21 [NORFLOXACIN] | 559 µg/mL (≈ 1750 µM) | 
73 | COc1ccc(Cc2nccc3cc(OC)c(OC)cc23)cc1OC [PAPAVERINE] | 46 µg/mL (≈ 136 µM) | 
74 | Cn1cnc([N+](=O)[O-])c1Sc1ncnc2nc[nH]c12 [AZATHIOPRINE] |  | 172 µg/mL (≈ 620 µM)
